In publication PMC8486263 (RSC Advances, 2020) one finds EC50, inhibition and IC50 data, which are given here for 3 compounds.

One series concerns HIV-1 (strain LAI). Nature of the series: microbe, parasite or virus in culture. Type of series: cell-based. Conditions: Human immunodeficiency virus 1, PBMC, 144 h; HIV-1 LAI, MOI 0.1, PHA/IL-2 stimulated human PBM cells, 6 days; read-out: anti-HIV-1 EC50.
A further series concerns HBV. Nature of the series: Antiviral assay against HBV in HepAD38 cells, real-time PCR for HBV DNA. Type of series: cell-based. The settings on record: Hepatitis B virus, 168 h. The protocol: HepAD38 cells[24] were seeded at 50 000 cells per well in collagen-coated 96-well plates. Test compounds or 3TC (control) were added to HepAD38 cells to a final concentration of 10 μM. Real-time PCR for HBV DNA lasted 7 days. On day 7, total DNA was purified from supernatant using commercially available kit (DNeasy 96 Blood & Tissue kit, Qiagen). The HBV DNA was amplified in a real-time PCR assay using LightCycler 480 (Roche) as described elsewhere.[23c] All samples were tested in triplicate. Analysis: the concentration of compound that inhibited HBV DNA replication by 50% (EC50) was determined by linear regression.
(Quantitative PCR measures a nucleic acid by following its amplification.)

The nature of a further series: in vitro. Conditions: African green monkey. The protocol: These assays were performed in human PBM, T lymphoblast CEM-CCRF (CEM), African green monkey kidney (Vero) or human liver (HepG2) cells. Results represent means from triplicate wells.
These were performed in […] (PBM), T lymphoblast CEM-CCRF (CEM), African green monkey kidney (Vero) or human liver (HepG2) cells via MTT assay using the CellTiter 96®. Non-Radioactive Cell Proliferation (Promega) kit as previously described.[23c] Cytotoxicity was expressed as the concentration of test compounds that inhibited cell proliferation by 50% (IC50) and calculated using the Chou and Talalay method.[25]

pEC50, pIC50: −log10 of the molar value.

Experimental for HIV-1 (strain LAI): The assay was performed as described previously,[23a,b] with some modifications described elsewhere.[23c] […] Supernatants were harvested, and HIV-1 RT was quantified. Median effective concentrations (EC50) were determined using described method.[23d]

As for `Cc1cn([C@H]2C[C@H](N=[N+]=[N-])[C@@H](CO)O2)c(=O)[nH]c1=O` [AZT, 3′-azido-3′-deoxythymidine], the pEC50 with HIV-1 (strain LAI) was 8.22.
`Nc1ccn([C@@H]2CS[C@H](CO)O2)c(=O)n1` [Lamivudine]: in the series with HBV (7 days, HBV DNA in supernatant, read-out: anti-HBV EC50), the pEC50 is more than 5.00. This compound also came in with an inhibition at 10 µM in the series with HBV (at 10 μM, day 7) of 97%.
In “in vitro”, `C[C@@H]1C[C@@H]([C@H](O)CC2CC(=O)NC(=O)C2)C(=O)[C@@H](C)C1` [cycloheximide] showed a pIC50 of 6.30.

The term pEC50 denotes −log10 of the EC50, conventionally taken in molar units. For orientation: inhibition means the share of the control response that was lost under treatment. Broadly, the pIC50 is the negative decadic logarithm of the IC50, by convention in mol/L.
